Laboratory results taken from patent US6524625B2, “Physiologically active extract obtained from indigo plant polygonum tinctorium” (Kabushiki Kaisha Hayashibara Seibutsu Kagaku Kenkyuto, priority 1998, dated 2003).
In brackets after ≈: the same amount, converted by molar mass. Like-named read-outs stand apart in the source and are kept apart here.

How the values were obtained:
[1] = test system: Staphylococcus aureus (ATCC 6538P); assay: Antiseptic action: MIC, agar plate dilution method; type: cell-based; settings: ATCC6538P; Staphylococcus aureus (ATCC 6538P); read-out: Minimum inhibitory concentration
[2] = test system: HGC-27 cells; assay: Antitumor action: growth inhibition, methylene blue staining; type: cell-based; settings: Homo sapiens; HGC-27 cells, 48 hours; read-out: 50% growth inhibitory concentration
Description: (§1) Solutions in each well were serially diluted with a fresh preparation of the same RPMI1640 medium (pH 7.2) as used in the above. […] Each cell suspension was distributed to a microplate in a volume of 50 μl/well and incubated at 37° C. for 48 hours in a 5 v/v % CO2 incubator. To each microplate, a 25 v/v % aqueous glutaraldehyde solution was added in a volume of 20 μl/well, and the microplate was allowed to stand for 15 min to fix the cells. Then, the cells adhered to the wells were washed with water, admixed with a 0.05 w/v % aqueous methylene blue solution in a volume of 100 μl/well, and further allowed to stand for 15 min to stain the cells. Thereafter, an excessive amount of the staining solution was removed from the wells by washing with water, and the cells were dried, admixed with 300 μl/well of 0.33 N hydrochloric acid, stirred sufficiently, and measured for absorption at a wavelength of 620 nm. In parallel, as a control, a system free of a test sample was provided and treated similarly as in the test samples. […]

[3] = test system: HL-60 cells; assay: as above; type: cell-based; settings: Homo sapiens; HL-60 cells, 48 hours; read-out: 50% growth inhibitory concentration
Description: as §1

[4] = test system: HLC-1 cells; assay: as above; type: cell-based; settings: Homo sapiens; HLC-1 cells, 48 hours; read-out: 50% growth inhibitory concentration
Description: as §1

[5] = Radical-entrapping action, nitro blue tetrazolium (NBT) method; type: biochemical; settings: for Radical-entrapping action: one unit = 50% inhibition of formazan formation, xanthin oxidase/xanthin/NBT; for Radical-entrapping action (in words): comment on Table 11
Description: Then the formed formazan was quantified on spectro-chemical analysis. Either of the present physiologically active extracts was dissolved in a refined water to give an appropriate concentration, and the solutions were used for test samples. As a control it was provided by replacing the test samples with a refined water. The 50% inhibitory activity for the formation of formazan in the control was defined as a one unit activity of radical-entrapping action. Based of the definition, the radical-entrapping activity of one gram of each test sample was determined.

[6] = test system: Pseudomonas aeruginosa (IFO 3453); assay: Antiseptic action: MIC, agar plate dilution method; type: cell-based; settings: IFO3453; Pseudomonas aeruginosa (IFO 3453); read-out: Minimum inhibitory concentration
[7] = test system: vesicular stomatitis virus (VSV); assay: microbe, parasite or virus in culture; type: cell-based; settings: L929, 24 h, read-out: 50% Growth inhibitory concentration
[8] = test system: Helicobacter pylori (NCTC 11638); assay: Antiseptic action: MIC, agar plate dilution method; type: cell-based; settings: for MIC: NCTC11638, Helicobacter pylori (NCTC 11638), Brucella broth agar with horse blood, read-out: Minimum inhibitory concentration; for Inhibition of the growth of Helicobacter pylori (in words): comment on Table 8
[9] = test system: Bacillus cereus (IFO 3466); assay: Antiseptic action: MIC, agar plate dilution method; type: cell-based; settings: IFO3466; Bacillus cereus (IFO 3466); read-out: Minimum inhibitory concentration
[10] = test system: HBL-38 cells; settings: for Relative value of 3H-thymidine uptake: HBL-38 cells, relative to positive control = 100
Description: (§2) […] of either of the above dilutes of Compound 7, 150 μl of the above cell suspension of HBL-38 cells treated with disperse, and 50 μl of a serum-free medium containing 5 μg/ml of lipopolysaccharide (LPS) were added to each well in a microplate, and the cells were incubated at 37° C. for 24 hours in a 5 v/v % CO2 incubator and used for test group. In parallel, as a negative control, a system with a serum-free medium in place of the serum-free medium containing LPS in the test group, and, as a positive group, a system with a serum medium in place of the dilute of Compound 7 in the test group were provided and treated similarly as in test group. After 24-hour incubation, 50 μl aliquots of supernatants from each well were collected. The collected supernatants were respectively subjected to conventional enzyme immunoassay using Gg23-901-530, obtained from National Institute of Health, Bethesda, Md., USA, as a standard for human interferon-γ, and quantified for interferon-γ production in each system. The cells in each well, from which the supernatants were removed, were mixed with 50 μl aliquots of a ^3H-thymidine solution with a radiation intensity of 5 μCi/ml in serum medium, and incubated at 37° C. for eight hours in a 5 v/v % CO2 incubator. Thereafter, the cells in each well in the microplate were collected with a glass filter, measured for radiation intensity by “DIRECT β-COUNTER MATRIX 96”, a β-ray detector commercialized by Packard Instrument Co., Conn., USA, and examined for ^3H-thymidine uptake by the cells in each well. […] In Table 13 the level of ^3H-thymidine uptake is expressed with a relative value (%) to the positive control.

[11] = test system: interferon-γ production; settings: HBL-38 cells + LPS; for Interferon-γ production level: 24 hours, positive control 5.468, negative control 1.367
Description: HBL-38 cells as an immunocompetent cell were cultured until proliferated to a prescribed cell density. After culturing, the proliferated HBL-38 cells were washed three times with RPMI1640 medium (pH 7.2) (hereinafter designated as “serum-free medium” in Experiment 15) by centrifugation, and adjusted to give a cell density of 1×10^8 cells/ml using the serum-free medium. To one milliliter of the cell suspension were added 4.5 ml of the serum-free medium and 0.5 ml of a disperse solution prepared by dissolving dispase, commercialized by Godo Shusei, Co., Ltd., Tokyo, Japan, in physiological saline to give a concentration of 10,000 units/ml, and the mixture was incubated at 37° C. for 90 min under shaking conditions. Thereafter, HBL-38 cells were washed three times with the serum medium by centrifugation and mixed with the serum medium into a cell suspension with a cell density of 1×10^6 cells/ml.
as §2

Molecule `O=c1c(O)c(-c2ccc(O)cc2)oc2cc3c(c(O)c12)OCO3` [Compound 2, 3,5, 4′-trihydroxy-6,7-methylenedioxy-flavone] has an MIC [1] of 313 µg/mL (≈ 996 µM), an IC50 [2] of 37.1 µg/mL (≈ 118 µM) and an IC50 [3] of 244 µg/mL (≈ 775 µM). For the same molecule, the IC50 [4] was 40.4 µg/mL (≈ 129 µM), the Radical-entrapping action [5] was 1,830 unit/g and the MIC [6] was 313 µg/mL (≈ 996 µM). The IC50 [7] was 14 µg/mL (≈ 44.6 µM), the MIC [8] was 156 µg/mL (≈ 496 µM) and the MIC [9] was 313 µg/mL (≈ 996 µM).

With `O=c1c(O)c(-c2ccc(O)cc2)oc2cc(O)cc(O)c12` [Compound 3, kaempferol] the Radical-entrapping action [5] was 14,000 unit/g, the MIC [8] was 39 µg/mL (≈ 136 µM) and the “Inhibition of the growth of Helicobacter pylori (in words)” value [8] was “strongly inhibited the growth”.

With `COc1c(O)cc2oc(-c3ccc(O)cc3)c(O)c(=O)c2c1O` [Compound 4, 3,5,7,4′-tetrahydroxy-6-methoxy-flavone] the Radical-entrapping action [5] was 4,010 unit/g, the MIC [8] was 39 µg/mL (≈ 123 µM) and the “Inhibition of the growth of Helicobacter pylori (in words)” value [8] was “strongly inhibited the growth”.

For `O=C(O)c1cc(O)c(O)c(O)c1` [Compound 5, gallic acid], the “Radical-entrapping action (in words)” value [5] was “remarkable” and the Radical-entrapping action [5] was 692,000 unit/g.

In the case of `O=C(O)/C=C/c1ccc(O)c(O)c1` [Compound 6, caffeic acid], the “Radical-entrapping action (in words)” value [5] is reported as “remarkable” and the Radical-entrapping action [5] is reported as 418,000 unit/g.

In the case of `O=C1Nc2ccccc2/C1=C1/Nc2ccccc2C1=O` [Compound 7, 3-(1,3-dihydro-3-oxo-2H-indol-2-ylidene)-1,3-dihydro-2H-indol-2-one], the “Relative value of 3H-thymidine uptake” value ([10]; 0.07 ng/ml) is reported as 98.0%, the “Relative value of 3H-thymidine uptake” value ([10]; 0.15 ng/ml) is reported as 98.3% and the “Relative value of 3H-thymidine uptake” value ([10]; 0.31 ng/ml) is reported as 99.7%. The “Relative value of 3H-thymidine uptake” value ([10]; 0.62 ng/ml) was 96.4%, the “Relative value of 3H-thymidine uptake” value ([10]; 1.25 ng/ml) was 99.6% and the “Relative value of 3H-thymidine uptake” value ([10]; 2.5 ng/ml) was 105.7%. The “Relative value of 3H-thymidine uptake” value ([10]; 5.0 ng/ml) was 101.1%, the “Relative value of 3H-thymidine uptake” value ([10]; 10.0 ng/ml) was 99.4% and the “Level of 3H-thymidine uptake by HBL-38 cells, control vs test groups (in words)” value ([10]; 0.07-10.0 ng/ml) was “no significant difference”. For the same molecule, the Interferon-γ production level ([11]; 0.07 ng/ml) was 2.753 IU/ml, the Interferon-γ production level ([11]; 0.15 ng/ml) was 2.195 IU/ml and the Interferon-γ production level ([11]; 0.31 ng/ml) was 1.979 IU/ml. It also gave an Interferon-γ production level ([11]; 0.62 ng/ml) of 1.958 IU/ml, an Interferon-γ production level ([11]; 1.25 ng/ml) of 1.288 IU/ml and an Interferon-γ production level ([11]; 2.5 ng/ml) of 1.342 IU/ml. For the same molecule, the Interferon-γ production level ([11]; 5.0 ng/ml) was 0.932 IU/ml, the Interferon-γ production level ([11]; 10.0 ng/ml) was 0.965 IU/ml and the “Concentration at which interferon-γ production was inhibited to the same or lower level as the negative control free of LPS” value [11] was “at least 1.25 ng/ml”. The “Inhibition of interferon-γ production (in words)” value [11] was “inhibited the interferon-γ production dose-dependently”.
